From ChEMBL document CHEMBL1201862, “PubChem BioAssay data set” (2004) come the findings set out here.

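Each compound was tested at five concentrations against cells in 96-well plates for 48 hours. Here, GI50 denotes the concentration required for 50% inhibition of growth.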 Active and inactive are the calls of the source. Cut-off read from the data, not from the text of the source: active = GI50 up to about 1.1 µM and inactive = higher.

Among the test systems are DU-145; M14; MDA-MB-231; MDA-N; T47D; LXFL 529; Hs-578T; RXF 631.
What all share (test): growth of human tumour cells (NCI), 48 h

With `CCOC(=O)c1csc(NC(=O)C(C)N2CCOCC2)n1` (configuration not stated), the GI50 in the assay with DU-145, with M14, in the assay on MDA-MB-231, in the assay on MDA-N and in the assay with T47D was > 100 µM (inactive) throughout.

For the molecule `N#CCCN(CCC#N)c1ccc(/C=C2\N=C(c3cc([N+](=O)[O-])ccc3Cl)N(S(=O)(=O)c3ccccc3)C2=O)cc1`, in the assay with LXFL 529, the GI50 is > 100 µM (inactive).

As for `Cc1cc(C)c2c(c1)CC1(Cc3c(C)ccc(C)c3C1=O)C2=O` (configuration not stated), the GI50 in the assay on DU-145, in the assay on Hs-578T, in the assay on M14, with MDA-MB-231, in the assay on MDA-N and in the assay with T47D was > 100 µM (inactive) throughout.

Turning to `CO/N=C1/c2sccc2[C@H](NC(=O)C(Cc2ccccc2)NC(=O)OC(C)(C)C)[C@@H]1O` (some centres not stated), the GI50 was > 100 µM (inactive) with DU-145; > 100 µM (inactive) with Hs-578T; > 100 µM (inactive) in the assay with M14; > 100 µM (inactive) with MDA-MB-231; > 100 µM (inactive) in the assay with MDA-N; 63.2 µM (inactive) in the assay with T47D.

`CCC1CN2CCc3cc(OC)c(OC)cc3C2CC1CC1c2cc(OC)c(OC)cc2CCN1C(=O)C(N)Cc1ccccc1.[O-][Cl+3]([O-])([O-])O` (configuration not stated): the GI50 in the assay with LXFL 529 is 1.67 µM (inactive); in the assay on M14, 0.628 µM (active); with RXF 631, 2.54 µM (inactive).

`CNC(=S)N/N=C(/C)CCC/C(C)=N/NC(=S)NC`: the GI50 was > 68.5 µM (inactive) in the assay on DU-145; > 100 µM (inactive) in the assay with Hs-578T; > 100 µM (inactive) in the assay with M14; > 28.6 µM (inactive) in the assay with MDA-MB-231; > 100 µM (inactive) in the assay on MDA-N; 1.23 µM (inactive) with T47D.
